Reference: PubChem BioAssay (NCI)
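Growth conditions: 96-well plates. Treatment: test compound, 48 hours, 5 concentrations. Analysis: linear interpolation between bracketing concentrations; unreached endpoints set to highest concentration. GI50 marks 50% less growth. At the TGI there is no net growth.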

How the values were obtained:
Assay in all cases: NCI tumour cell line growth inhibition, 48 h
ACHN renal = test system: ACHN renal
NCI-H23 lung = test system: NCI-H23 lung
786-0 renal = test system: 786-0 renal
HT29 colon = test system: HT29 colon
NCI-H522 lung = test system: NCI-H522 lung
U251 CNS = test system: U251 CNS
MDA-MB-468 breast = test system: MDA-MB-468 breast
K-562 leukemia = test system: K-562 leukemia
MALME-3M melanoma = test system: MALME-3M melanoma
HOP-92 NSCLC = test system: HOP-92 NSCLC
HL-60(TB) leukemia = test system: HL-60(TB) leukemia
LOX IMVI melanoma = test system: LOX IMVI melanoma
MDA-MB-231 breast = test system: MDA-MB-231 breast
HCT-15 colon = test system: HCT-15 colon
SF-268 CNS = test system: SF-268 CNS
BT-549 breast = test system: BT-549 breast
SNB-19 CNS = test system: SNB-19 CNS
IGROV1 ovarian = test system: IGROV1 ovarian
PC-3 prostate = test system: PC-3 prostate
OVCAR-4 ovarian = test system: OVCAR-4 ovarian
NCI-H226 lung = test system: NCI-H226 lung
CAKI-1 renal = test system: CAKI-1 renal
HOP-62 NSCLC = test system: HOP-62 NSCLC
OVCAR-3 ovarian = test system: OVCAR-3 ovarian
SK-MEL-28 melanoma = test system: SK-MEL-28 melanoma
TK-10 renal = test system: TK-10 renal
KM12 colon = test system: KM12 colon
MDA-MB-435 = test system: MDA-MB-435

## CN(C)c1nc(NCCNS(=O)(=O)c2ccc(C(=O)/C=C/c3ccc(Cl)cc3)cc2)nc(N2CCOCC2)n1
ACHN renal
  GI50: 13.5 µM
  TGI: 26.3 µM
NCI-H23 lung
  GI50: 15.7 µM
  TGI: 29.5 µM
786-0 renal
  GI50: 14.8 µM
  TGI: 28.8 µM
HT29 colon
  GI50: 3.21 µM
  TGI: 10.4 µM
NCI-H522 lung
  GI50: 14 µM
  TGI: 27.3 µM
U251 CNS
  GI50: 8.17 µM
  TGI: 20.7 µM
MDA-MB-468 breast
  GI50: 11 µM
  TGI: 24.9 µM
K-562 leukemia
  GI50: 3.71 µM
  TGI: > 100 µM
MALME-3M melanoma
  GI50: 15.1 µM
  TGI: 28.6 µM
HOP-92 NSCLC
  GI50: 15.1 µM
  TGI: 32 µM
HL-60(TB) leukemia
  GI50: 14.7 µM
  TGI: 95.1 µM
LOX IMVI melanoma
  GI50: 1.71 µM
  TGI: 3.24 µM
MDA-MB-231 breast
  GI50: 13.3 µM
  TGI: 26.5 µM
HCT-15 colon
  GI50: 2.07 µM
  TGI: 4.54 µM
SF-268 CNS
  GI50: 17.7 µM
  TGI: 43.8 µM
BT-549 breast
  GI50: 15.3 µM
  TGI: 29.3 µM
SNB-19 CNS
  GI50: 14.2 µM
  TGI: 27.2 µM
IGROV1 ovarian
  GI50: 3.08 µM
  TGI: 11 µM
PC-3 prostate
  GI50: 13 µM
  TGI: 29.6 µM
OVCAR-4 ovarian
  GI50: 14.7 µM
  TGI: 29 µM
NCI-H226 lung
  GI50: 15.7 µM
  TGI: 34 µM
CAKI-1 renal
  GI50: 11.2 µM
  TGI: 24.7 µM
HOP-62 NSCLC
  GI50: 17.5 µM
  TGI: 34 µM
OVCAR-3 ovarian
  GI50: 17.9 µM
  TGI: 35.5 µM
SK-MEL-28 melanoma
  GI50: 15.5 µM
  TGI: 28.9 µM
TK-10 renal
  GI50: 15.8 µM
  TGI: 29.4 µM
KM12 colon
  GI50: 16.9 µM
  TGI: 41.4 µM
MDA-MB-435
  GI50: 12.8 µM
  TGI: 26.6 µM
